According to patent publication US7875599B2, “C-17-heteroaryl steroidal CYP17 inhibitors/antiandrogens, in vitro biological activities, pharmacokinetics and antitumor activity” (University of Maryland, priority 2005, dated 2011):
Like-named read-outs stand apart in the source and are kept apart here.

Columns and labels:
[1] = target: T1, human 5α-reductase type 2 (Homo sapiens, UniProt P31213); assay: Human 5α-reductase type 2 assay (BPH tissue homogenate)
T1 sequence (P31213 1-254): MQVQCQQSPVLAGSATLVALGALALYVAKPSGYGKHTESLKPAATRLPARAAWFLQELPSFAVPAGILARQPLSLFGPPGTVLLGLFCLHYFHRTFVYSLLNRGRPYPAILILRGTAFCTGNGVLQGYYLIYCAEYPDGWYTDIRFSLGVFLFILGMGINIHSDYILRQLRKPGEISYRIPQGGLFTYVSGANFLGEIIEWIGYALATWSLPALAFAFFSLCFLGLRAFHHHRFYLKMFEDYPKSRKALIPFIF

[2] = tested on: LNCaP mutant AR-mediated transcription; assay: Luciferase transactivation assay in LNCaP cells transfected with ARR2-Luc; conditions: 18 h
Description: Luciferase Transactivation Assay: Transcriptional activation assay is carried out as described previously by Kim et al., above, with minor modifications. […] The pRL-null (Promega) is used as the internal control. […] Luciferase activities are measured in triplicates by using dual luciferase assay system according to the manufacturer's instruction (Promega).
The bars represent the mean light units [counts per second (cps)/unit protein, i.e., relative luciferase activity] in triplicate wells from three separate experiments.

[3] = male, SCID, mouse, in vivo, 1 h
Description: At the end of the experiment, the levels of 5 in the tumors and organs of the 5-treated mice are determined. […] This metabolite has the same retention time as the metabolite observed in the plasma (vide supra). […] The animals in the VN/124-1-treated group are sacrificed 1 h after the last VN/124-1 administration, and tumor, liver and testis are harvested and snap frozen in liquid nitrogen. Tissue samples are homogenized in phosphate buffer (pH=7.4, […]). […] The residue is reconstituted in 100 μL of the HPLC mobile phase, filtered through 0.2 μm Teflon filters and then analyzed by HPLC as described above.

[4] = target: T2, human 5α-reductase type 1 (Homo sapiens, UniProt P18405); assay: Human 5α-reductase type 1 assay (DU-145 cell line)
T2 sequence (P18405 1-259): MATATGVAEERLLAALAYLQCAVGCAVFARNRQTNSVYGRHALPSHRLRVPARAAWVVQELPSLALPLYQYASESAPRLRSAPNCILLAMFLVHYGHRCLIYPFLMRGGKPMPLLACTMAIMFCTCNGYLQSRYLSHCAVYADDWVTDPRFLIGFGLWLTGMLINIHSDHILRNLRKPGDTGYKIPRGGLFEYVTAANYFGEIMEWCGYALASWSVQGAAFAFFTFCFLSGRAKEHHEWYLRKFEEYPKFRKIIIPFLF

[5] = Pharmacokinetics after single s.c. dose in male SCID mice; type: in vivo, mouse; conditions: for peak plasma level: mice (as printed in summary b4); for half-life: male, SCID
Text: Pharmacokinetics of 5 and 6 and metabolism of 5: The pharmacokinetic properties in male SCID mouse for the two lead compounds, 5 and 6 are studied following our recently described procedure for other CYP17 inhibitors (Nnane et al., “Pharmacokinetic profile of 3β-hydroxy-17-(1H-123-triazol-1-yl)androsta-5,16-diene (VN/87-1), a potent androgen synthesis inhibitor in mice”, J. Steroid Biochem. Molec. Biol., 2001, 71, 145-152; and Handratta et al., “Potent CYP17 inhibitors: improved syntheses, pharmacokinetics and anti-tumor activity in the LNCaP human prostate cancer model”, J. Steroid Biochem. Molec. Biol., 2004, 92, 155-165.
Pharmacokinetic Studies All animal studies are performed according to the guidelines and approval of the Animal Care Committee of the University of Maryland School of Medicine, Baltimore. Male SCID mice weighing 20-22 gm (8-10 weeks old) obtained from NCI, Frederick, Md., USA are maintained in a controlled environment of about 25° C., 50% relative humidity and 12 h of light and 12 h of dark cycles and allowed free access to food and water. Compounds 5 and 6 are formulated in 40% β-cyclodextrin in water and a single subcutaneous dose is given to mice. The animals are sacrificed at various times up to 6 h after drug administration and blood was obtained by cardiac puncture under light halothane (Ayerst, New York, N.Y., USA) anesthesia.
HPLC Analysis: Chromatographic separations and quantification of the steroids and the appropriate internal standards are achieved by a reverse phase HPLC method on a Waters® Novapak® C18 column (3.9×150 mm) protected by Waters® guard cartridge packed with pellicle C18 as previously described. Briefly, the HPLC system used in this study consisted of Waters® solvent delivery system, Waters® controller (Milford, Mass.), coupled to a Waters® 717^plus autosampler and a Waters® 996 photodiode array detector operated at 242.7 nm. The mobile phase composition is Water/MeOH/CH3CN (35:35:30, v/v/v+200 μl, of Et3N and 0.77 g of NH4OAc per 1000 mL of mobile phase) at a flow rate of 1.0 mL/min. The HPLC analysis is performed at ambient temperature and data acquisition and management ius achieved with a Waters® millennium chromatography manager.
Sample Preparation: Test tubes containing mouse plasma (200 μL), 5 or 6 and VN/85-1 (internal standard, 10 μL of 100 μg/mL), are extracted with diethyl ether (2×2 mL) using a vortex mixer for 3 minutes and centrifuged at 3000 g for 5 min. The organic layers are evaporated to dryness under a gentle stream of air. The residue is reconstituted in an aliquot of the mobile phase (100 μL) and filtered using 0.2 μm Teflon filters before HPLC analysis. Calibration Curve and HPLC Assay Validation: The calibration curves for 5 in plasma and tissue and for 6 in plasma are constructed by spiking varying amounts of the compounds into extraction tubes (duplicate) containing plasma (200 μL) and tissue preparations (200 μL) from untreated animals to give final concentrations of 0.1-100.0 μg/mL. Appropriate blank extraction tubes are also prepared and an aliquot of the internal standard is added into each extraction tube to give a final concentration of 5 μg/ml. The calibration samples are taken through the sample preparation procedure as described above. An aliquot of the reconstituted extract (50 μl) is injected into the HPLC system and the ratio of the peak areas for each analyte to that of the internal standard are plotted against concentrations of 5 or 6. The precision and accuracy of the assays are determined from a range of known concentrations of the inhibitors in blank plasma and taken through the HPLC procedure. The study is repeated on three separate occasions.
Data Analysis: Pharmacokinetic calculations are performed as previously described. The non-compartmental pharmacokinetic calculations are performed using WinNOnlin (Scientific Consulting Inc.). […]

[6] = mouse, plasma, sc, 50 mg/kg, 50 mg/kg s.c., male SCID mice

For `C[C@]12CC[C@H](O)CC1=CC[C@@H]1[C@@H]2CC[C@]2(C)C(n3cnc4ccccc43)=CC[C@@H]12` [Compound 5, 3β-Hydroxy-17-(1H-benzimidazol-1-yl)androsta-5,16-diene], the inhibition at 10 µM ([1]; read-out: 5α-Reductase type 2 % inhibition at 10 μM) was 53%, the “effect on luciferase activity, compound alone” value ([2]; 0.1 and 10.0 μM, without DHT) was “no effect” and the “effect on luciferase expression induced by 1.0 nM DHT” value ([2]; with 1.0 nM DHT) was “decreased in a concentration-dependent manner”. The “concentration in the s.c. tumors” value [3] was 39.0±8.4 μg/mg tissue, the inhibition at 10 µM ([4]; read-out: 5α-Reductase type 1 % inhibition at 10 μM) was 4% and the AUC ([5]; 50 mg/kg s.c., male SCID mice) was 1440.00 ± 60.23 µg·min/mL. The Cmax ([5]; 50 mg/kg s.c., male SCID mice) was 16820 ± 370 ng/mL, the MRT ([5]; 50 mg/kg s.c., male SCID mice) was 65.40 ± 0.60 min and the Tmax ([5]; 50 mg/kg s.c., male SCID mice) was 30.0 min. The Vd ([5]; 50 mg/kg s.c., male SCID mice) was 2098.99 ± 4. mL/kg, the peak plasma level ([5]; 50 mg/kg s.c.) was 16.82 ng/mL and the AUC ([5]; 100 mg/kg s.c., male SCID mice) was 1813.94 ± 10.94 µg·min/mL. It also gave a Cmax ([5]; 100 mg/kg s.c., male SCID mice) of 32230 ± 340 ng/mL, an MRT ([5]; 100 mg/kg s.c., male SCID mice) of 60.46 ± 1.54 min and a Tmax ([5]; 100 mg/kg s.c., male SCID mice) of 30.00 ± 0.0 min. For the same compound, the Vd ([5]; 100 mg/kg s.c., male SCID mice) was 113276.39 ± 26.71 mL/kg, the half-life [5, 6] was 44.2 min and the half-life ([5]; mouse, plasma, sc, 100 mg/kg, 100 mg/kg s.c., male SCID mice) was 36.6 ± 1.6 min. The “clearance from the systemic circulation” value ([5]; s.c. administration, male SCID mice) was 33.1023 mL/min/kg.

For `C[C@]12CCC(=O)C=C1CC[C@@H]1[C@@H]2CC[C@]2(C)C(n3cnc4ccccc43)=CC[C@@H]12` [Compound 6, 17-(1H-benzimidazol-1-yl)androsta-4,16-diene-3-one], the melting point was 201 to 204 °C, the IC50 [1] was 480 nM and the IC50 [4] was 770 nM. It also gave a Kel ([5]; 50 mg/kg s.c., male SCID mice) of 0.0183 ± 0.004 min⁻¹, a Vd ([5]; 50 mg/kg s.c., male SCID mice) of 4207.24 ± 6.25 mL/kg and a t1/2 ([5]; 50 mg/kg s.c., male SCID mice, plasma) of 37.93 ± 1.15 min. The peak plasma level ([5]; 50 mg/kg s.c.) was 5.15 ng/mL, the “metabolism of the compound detected in plasma” value ([5]; in vivo pharmacokinetics in mice) was “did not detect any metabolism(s)” and the half-life [5, 6] was 39.9 min. For the same compound, the AUC ([5]; mouse, plasma, sc, 50 mg/kg s.c., male SCID mice, read-out: AUC (converted)) was 647 µg·min/mL, the Cmax ([5]; mouse, plasma, sc, 50 mg/kg s.c., male SCID mice, read-out: Cmax) was 5150 ± 90 ng/mL and the MRT ([5]; mouse, plasma, sc, 50 mg/kg s.c., male SCID mice, read-out: MRT (converted)) was 80 min. For the same compound, the Tmax ([5]; mouse, plasma, sc, 50 mg/kg s.c., male SCID mice, read-out: Tmax (converted)) was 60 min and the “time after administration at which compound was not detected in plasma” value ([5]; s.c. administration, mice) was 8 h.
